The text below walks through data of patent US8722634B2, “Use of compounds extracted from Momordica charantia L. in the manufacture of medicaments for prevention and treatment of diabetes and obesity” (Shanghai Institute of Materia Medica, Chinese Academy of …, priority 2008, dated 2014).

Assay [1] has as its system alloxan-induced diabetic mice. The note with it: 400 mg/kg, effect reported was very mild; cited from earlier work.
Assay [2] concerns adenosine monophosphate-activated protein kinase (AMPK). Briefly: AMPK activation (pACC, pAMPK) in 3T3-L1 adipose cells. It counts as cell-based. The note with it: for activation of the AMPK signaling pathway (pACC, pAMPK): 10 μM, 60 minutes. On the procedure: Testing the activities of trihydroxycucurbita-5,23(E)-diene-19-aldehyde and 22(S), 23(R),24(R),25-tetrahydroxy cucurbita-5-ene on adenosine monophosphate-activated protein kinase (AMPK) (FIG. 3)
3T3-L1 adipose cells was incubated for 60 minutes in a medium containing 10 μM compounds, or in a medium containing 2 mM 5-amino4-imidazolecarboxamide nucleotide (AIC, positive control) or DMSO as a solvent control, followed by being treated with 100 nM insulin for 2 minutes or 25 minutes. Then the proteins pACC and pAMPK in cell lysate were determined with corresponding antibodies. The total amount of protein 14-3-3 was used as the quality control for sample loading.
(§1) According the processes in experimental examples 2 and 3, 22(S),23(R),24(R),25-tetrahydroxycucurbita-5-ene was tested at different concentrations (10^−10, 10^−7, 10^−6, 10^−5 M).

Assay [3] relates to protein kinase B (Akt). Briefly: phosphorylation of protein kinase B [Akt (S473)] in L6 muscle cells. Type of assay: cell-based. The settings on record: 10 μM, 30 minutes. On the procedure:
(§2) B. 3T3-L1 adipose cells and L6 muscle cells were incubated for 30 minutes in a medium containing 10 μM trihydroxycucurbita-5,23(E)-dien-19-al or 22(S),23(R),24(R),25-tetrahydroxycucurbita-5-ene, or a medium containing 100 nM insulin (positive control) or DMSO as a solvent control. The phosphorylation of protein kinase B [Akt (S473)] and the total protein kinase B (14-3-3) were determined with corresponding antibodies. The significances are shown as *p<0.05 and **p<0.01 compared with the solvent control groups.

Assay [4] deals with glucose transporter 4 (GLUT4). As to the kind of experiment: GLUT4 translocation in 3T3-L1 adipose cells. It counts as cell-based. On the procedure: Dose-dependent effect of 22(S),23(R),24(R),25-tetrahydroxycucurbita-5-ene on GLUT4 translocation and the phosphorylation of AMPK in 3T3-L1 adipose cells (FIG. 4)
as §1
A. 10 μM 22(S),23(R),24(R),25-tetrahydroxycucurbita-5-ene or 100 nM insulin (positive control) was added in the differentiated 3T3-L1 adipose cells using DMSO (final concentration of DMSO: 0.2%) as a solvent with or without wortmanin (an inhibitor of monophosphoinositide 3-kinase), and the activity on GLUT4 translocation was determined as described in experimental example 2. The data were expressed in mean±standard error (X±SE). The significances were shown as *p<0.05 and **p<0.01 compared with the solvent control groups.

The test system of assay [5] is glucose transporter 4 (GLUT4). Briefly: translocation of glucose transporter 4 (GLUT4) to the cell membrane in L6 myotubes. Type of assay: cell-based. The settings on record: 10 μM, 2 hours. On the procedure: Effects of isolated compounds on the translocation of glucose transporter 4 (GLUT4) from cytosol to the cell membrane (FIG. 2)
After L6 cells were differentiated to myotube completely, they were treated for 2 hours with various test compounds, namely trihydroxycucurbita-5,23(E)-dien-19-al, 22(S),23(R),24(R),25-tetrahydroxycucurbita-5-ene, momordicoside A, momordicoside B (final concentration 10 μM, each) or 100 nM insulin (as positive control). The data were expressed as mean±standard error (X±SE) (n=3-4). The significance was shown as ***p<0.001 compared with solvent control groups.

Assay [6] concerns protein kinase B (Akt). As to the kind of experiment: phosphorylation of protein kinase B [Akt (S473)] in 3T3-L1 adipose cells. The note with it: 10 μM, 30 minutes. Type of assay: cell-based. On the procedure:
as §2

The subject of the next assay is L6 muscle cells. As to the kind of experiment: glucose uptake in L6 muscle cells (2-[3H]-deoxy-D-glucose). The note with it: 10 μM, 2 hours, p<0.05 vs control. Type of assay: cell-based. On the procedure: Testing the effect of momordicoside A on the glucose uptake in L6 muscle cells (FIG. 1)
After L6 cells were differentiated to myotube completely, they were incubated in serum-free DMEM containing 0.5% BSA for 16 hours. […] After that, they were washed with 1×PBS preheated at 37° C. twice, and 0.5% BSA Krebs buffer (NaCl 140 mM, KCl 5 mM, MgSO4 2.5 mM, CaCl2 1 mM, HEPES 20 mM, pH7.4) without or with insulin (final concentration 100 nM), followed by incubation at 37° C. for 40 minutes. A 2-[1,2-3H(N)]-deoxy-D-glucose solution (final concentration 0.5 μCi/ml) was added therein and incubated for 10 minutes at 37° C. Then the reaction was terminated by washing three times with ice-cold 1×PBS and 0.15 ml of 0.1% Triton was added therein for the lysis of the cells the counting in a liquid-scintillation counter. After the CPM value was corrected with the protein amount, the glucose uptake amount of L6 cells was calculated.
The data are shown in mean±standard error (X±SE) (n=3). The significance was shown as *p<0.05 compared with control groups under corresponding conditions.

The mark [7] stands for this setting: tested at 10^−10, 10^−7, 10^−6, 10^−5 M.

In the case of `CC(CC=CC(C)(C)O)C1CCC2(C)C3C=CC45OCC3(CCC12C)C4CCC(O)C5(C)C` (stereo not drawn) [5β, 19-epoxy-3β,25-dihydroxycucurbita-6,23(E)-diene], the hypoglycemic effect entry in assay [1] is recorded as “showed hypoglycemic effect”.
Turning to `C[C@H]([C@H](O)[C@@H](O)[C@@H](O)C(C)(C)O)[C@H]1CC[C@@]2(C)C3CC=C4C(CC[C@H](O)C4(C)C)[C@]3(C)CC[C@]12C` (stereo partly drawn) [22(S),23(R),24(R),25-tetrahydroxycucurbita-5-ene], the “activation of the AMPK signaling pathway (pACC, pAMPK)” value in assay [2] is on record as “capable of activating the AMPK signaling pathway significantly”. Further, the “concentration at which the maximal effect on phosphorylation of AMPK was reached” value in assay [2] (setting [7]) is reported as 10^−6 M. Besides, the “phosphorylation of protein kinase B [Akt (S473)]” value in the assay with protein kinase B (Akt) [3] and with protein kinase B (Akt) [6] was “not able to increase the phosphorylation of protein kinase B” each time. For the same compound, the “effect of wortmanin (PI3-kinase inhibitor) on the compound's activity on GLUT4 translocation” value in assay [4] (10 μM, with or without wortmanin) was “did not affect the activity”. Besides, in assay [4] (setting [7]), the “concentration at which the maximal effect on GLUT4 translocation was reached” value is on record as 10^−6 M. Besides, the “translocation of glucose transporter 4 (GLUT4) to the cell membrane” value in assay [5] is recorded as “capable of promoting the translocation”.
Turning to `C[C@H](C/C=C/C(C)(C)O)[C@H]1CC[C@@]2(C)C3[C@@H](O)C=C4C(CC[C@H](O)C4(C)C)[C@]3(C=O)CC[C@]12C` (stereo partly drawn) [trihydroxycucurbita-5,23(E)-dien-19-al], the hypoglycemic effect entry in assay [1] is recorded as “showed hypoglycemic effect”. Also, the “activation of the AMPK signaling pathway (pACC, pAMPK)” value in assay [2] is “capable of activating the AMPK signaling pathway significantly”. In addition, the “phosphorylation of protein kinase B [Akt (S473)]” value in the assay on protein kinase B (Akt) [3] and in the assay with protein kinase B (Akt) [6] was “not able to increase the phosphorylation of protein kinase B” in each case. In assay [5], the “translocation of glucose transporter 4 (GLUT4) to the cell membrane” value was “capable of promoting the translocation”.
Turning to momordicoside A, in the assay on L6 muscle cells (100 nM insulin), the “glucose uptake in L6 cells under the stimulus of insulin” value is reported as “increased significantly”. Also, in the assay with L6 muscle cells (without insulin), the “glucose uptake in L6 cells at base level” value is on record as “increased significantly”.
